Source: ChEMBL document CHEMBL5331068, “Briarane-type diterpenoids, the inhibitors of osteoclast formation by interrupting Keap1-Nrf2 interaction and activating Nrf2 pathway” (Eur J Med Chem, 2023)
Activity calls are given as the source filed them. No cut-off for these calls is given here.

What was measured:
[1] = tested on: BMDM; experiment: Anti-osteoclastogenesis activity in C57BL/6 mouse BMDM cells assessed as inhibition of RANKL-induced osteoclastogenesis at 1 uM incubated for 7 days in the presence of M-CSF by TRAP-staining based microscopic analysis relative to control; type: functional; details: C57BL/6, BMDM, 168 h, time 7 day
[2] = molecular target: T1, Kelch-like ECH-associated protein 1 (Homo sapiens, UniProt Q14145); experiment: Binding affinity to recombinant human Keap1 assessed as equilibrium dissociation constant by SPR analysis
T1 sequence (Q14145 whole entry): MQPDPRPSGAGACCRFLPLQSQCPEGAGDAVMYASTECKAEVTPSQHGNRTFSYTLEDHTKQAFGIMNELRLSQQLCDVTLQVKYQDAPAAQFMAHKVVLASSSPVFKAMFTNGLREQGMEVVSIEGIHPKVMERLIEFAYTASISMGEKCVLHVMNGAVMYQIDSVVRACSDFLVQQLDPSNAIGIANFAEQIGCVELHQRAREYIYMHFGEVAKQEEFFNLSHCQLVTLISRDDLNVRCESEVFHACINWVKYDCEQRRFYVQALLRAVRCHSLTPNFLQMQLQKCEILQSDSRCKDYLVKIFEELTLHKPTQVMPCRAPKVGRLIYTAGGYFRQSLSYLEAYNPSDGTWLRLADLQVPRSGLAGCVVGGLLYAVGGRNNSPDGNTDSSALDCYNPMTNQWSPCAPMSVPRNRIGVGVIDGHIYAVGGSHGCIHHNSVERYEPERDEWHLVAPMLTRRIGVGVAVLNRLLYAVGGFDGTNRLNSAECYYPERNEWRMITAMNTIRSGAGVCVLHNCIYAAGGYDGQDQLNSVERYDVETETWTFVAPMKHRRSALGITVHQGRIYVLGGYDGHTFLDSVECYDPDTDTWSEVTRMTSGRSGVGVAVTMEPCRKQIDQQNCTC

[3] = Cytotoxicity against C57BL/6 mouse BMDM cells incubated for 48 hrs by MTT assay; type: toxicity, cell-based; details: BMDM cells (bone marrow-derived macrophages)
[4] = tested on: BMDM; experiment: Anti-osteoclastogenesis activity in C57BL/6 mouse BMDM cells assessed as inhibition of RANKL-induced osteoclastogenesis at 10 uM incubated for 7 days in the presence of M-CSF by TRAP-staining based microscopic analysis relative to control; type: functional; details: C57BL/6, BMDM, 168 h, time 7 day
[5] = molecular target: T1, Kelch-like ECH-associated protein 1; experiment: Binding affinity to recombinant human Keap1 by SPR analysis

Row | Structure (SMILES) | inhibition at 1 µM [1] [%] | Kd [2] [µM] | CC50 at 48 h [3] [µM] | inhibition at 10 µM [4] [%] | Activity [5]
1 | O=P(O)(O)C(O)(Cn1ccnc1)P(=O)(O)O [ZOLEDRONIC ACID ANHYDROUS] | 87.1 |  |  |  | 
2 | CCOCC1=C/[C@@H]2OC(=O)[C@H](C)[C@@]2(O)[C@@H](OC(C)=O)[C@H]2[C@@]3(CO3)[C@H](OC(C)=O)C[C@H](OC(=O)CC(C)C)[C@]2(C)[C@@H](OC(C)=O)/C=C\1 |  | > 100 | > 50 | 38.4 | 
3 | CCOCC1=C/[C@@H]2OC(=O)[C@H](C)[C@@]2(O)[C@@H](OC(C)=O)[C@H]2[C@@]3(CO3)[C@H](OC(C)=O)C[C@H](OC(C)=O)[C@]2(C)[C@@H](OC(C)=O)/C=C\1 |  | 6.2 | > 50 | 88.3 | 
4 | CC(=O)O[C@H]1[C@@H](OC(=O)CC(C)C)[C@](O)(CO)[C@@H]2[C@H](OC(C)=O)[C@@]3(O)[C@H](/C=C(CCl)\C=C/[C@H](OC(C)=O)[C@@]2(C)[C@H]1OC(C)=O)OC(=O)[C@@H]3C |  |  | > 50 | 20.9 | inactive
5 | C=C1/C=C\[C@H](OC(C)=O)[C@@]2(C)[C@@H](OC(C)=O)CC[C@]3(CO3)[C@@H]2[C@H](OC(C)=O)[C@]2(O)[C@@H](C)C(=O)O[C@H]2[C@H]1Cl |  |  | > 50 | 97.1 | Active
6 | CC(=O)O[C@H]1/C=C\C(CO)=C/[C@@H]2OC(=O)[C@H](C)[C@@]2(O)[C@@H](OC(C)=O)[C@H]2[C@@](O)(CO)CC[C@H](OC(C)=O)[C@]12C |  | 6.6 | > 50 | 32 | 
7 | CC(=O)O[C@H]1[C@@H](O)[C@](O)(CO)[C@@H]2[C@H](OC(C)=O)[C@@]3(O)[C@H](/C=C(COC(=O)CC(C)C)\C=C/[C@H](OC(C)=O)[C@@]2(C)[C@H]1OC(C)=O)OC(=O)[C@@H]3C |  |  | > 50 | 100 | inactive
8 | CC(=O)O[C@H]1/C=C\C(CO)=C/[C@@H]2OC(=O)[C@H](C)[C@@]2(O)[C@@H](OC(C)=O)[C@H]2[C@@](O)(CO)[C@H](O)[C@H](OC(=O)CC(C)C)[C@H](OC(C)=O)[C@]12C |  |  | > 50 | 62.8 | inactive
9 | CC(=O)O[C@H]1CC[C@](O)(CO)[C@@H]2[C@H](OC(C)=O)[C@@]3(O)[C@H](/C=C(CO)\C=C/[C@H](OC(=O)COC(=O)CC(C)C)[C@@]12C)OC(=O)[C@@H]3C |  | > 100 | > 50 | 33.7 | inactive
